Results on five cell lines are retold here after the supplement of paper PMC10307832.

Common to all, as to assay: relative viability (nuclei count vs DMSO), 5 days (fraction); higher = more cells survive
Compound in the experiment “Vismodegib + Pictilisib”: CS(=O)(=O)c1ccc(C(=O)Nc2ccc(Cl)c(-c3ccccn3)c2)c(Cl)c1 [Vismodegib] + CS(=O)(=O)N1CCN(Cc2cc3nc(-c4cccc5[nH]ncc45)nc(N4CCOCC4)c3s2)CC1 [Pictilisib] (partner 1 µM)
The essentials: (§1)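 One day after seeding in 1536-well plates, lung cancer cell lines were dosed by pin tool. Dosing was either single-drug or a fixed anchor-drug dose plus five library-drug doses (not always all listed) in √10 steps. After 5 days, nuclei were stained in one fix-and-stain step and counted on 4× images, and relative viability is the nuclei count of treated wells over that of vehicle wells, given as the median of duplicate plates.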

Compound in the experiment “VE-821 + OSI-027”: CS(=O)(=O)c1ccc(-c2cnc(N)c(C(=O)Nc3ccccc3)n2)cc1 [VE-821] + COc1cccc2cc(-c3nc([C@H]4CC[C@H](C(=O)O)CC4)n4ncnc(N)c34)[nH]c12 [OSI-027] (partner 0.5 µM)
In a few lines:
as §1

Compound in the experiment “VE-821 + Pemetrexed”: CS(=O)(=O)c1ccc(-c2cnc(N)c(C(=O)Nc3ccccc3)n2)cc1 [VE-821] + Nc1nc2[nH]cc(CCc3ccc(C(=O)N[C@@H](CCC(=O)O)C(=O)O)cc3)c2c(=O)[nH]1 [Pemetrexed] (partner 0.2 µM)
The essentials: as §1

Compound in the experiment “VE-821 + Vorinostat”: CS(=O)(=O)c1ccc(-c2cnc(N)c(C(=O)Nc3ccccc3)n2)cc1 [VE-821] + O=C(CCCCCCC(=O)Nc1ccccc1)NO [Vorinostat] (partner 1 µM)
In a few lines: as §1

As for 201T, the relative viability with Vismodegib + Pictilisib (first compound 0.08 µM) was 0.712; in the experiment with Vismodegib + Pictilisib (first compound 0.253 µM) it was 0.67; with Vismodegib + Pictilisib (first compound 0.8 µM) it was 0.641; with Vismodegib + Pictilisib (first compound 2.53 µM), 0.673; in the experiment with Vismodegib + Pictilisib (first compound 8 µM) it was 0.66; with VE-821 + OSI-027 (first compound 0.08 µM) it was 0.815. Further, the relative viability with VE-821 + OSI-027 (first compound 0.253 µM) is 0.672; with VE-821 + OSI-027 (first compound 0.8 µM), 0.688; with VE-821 + OSI-027 (first compound 2.53 µM), 0.747; in the experiment with VE-821 + OSI-027 (first compound 8 µM) it was 0.381; with VE-821 + Pemetrexed (first compound 0.08 µM), 0.333; with VE-821 + Pemetrexed (first compound 0.253 µM), 0.303. Moreover, the relative viability with VE-821 + Pemetrexed (first compound 0.8 µM) turned out to be 0.324; with VE-821 + Pemetrexed (first compound 2.53 µM) it was 0.293; with VE-821 + Pemetrexed (first compound 8 µM), 0.231; with VE-821 + Vorinostat (first compound 0.08 µM), 0.991; in the experiment with VE-821 + Vorinostat (first compound 0.253 µM), 0.947; in the experiment with VE-821 + Vorinostat (first compound 0.8 µM), 0.992. Besides, the relative viability with VE-821 + Vorinostat (first compound 2.53 µM) stood at 1.01; in the experiment with VE-821 + Vorinostat (first compound 8 µM), 0.752.

As for A549, the relative viability in the experiment with Vismodegib + Pictilisib (first compound 0.08 µM) stood at 0.507; with Vismodegib + Pictilisib (first compound 0.253 µM), 0.465; with Vismodegib + Pictilisib (first compound 0.8 µM) it was 0.478; in the experiment with Vismodegib + Pictilisib (first compound 2.53 µM) it was 0.56; with Vismodegib + Pictilisib (first compound 8 µM), 0.432.

Regarding A-427, the relative viability came to 0.757 in the experiment with Vismodegib + Pictilisib (first compound 0.08 µM); 0.701 in the experiment with Vismodegib + Pictilisib (first compound 0.253 µM); 0.635 in the experiment with Vismodegib + Pictilisib (first compound 0.8 µM); 0.694 in the experiment with Vismodegib + Pictilisib (first compound 2.53 µM); 0.634 in the experiment with Vismodegib + Pictilisib (first compound 8 µM); 0.514 with VE-821 + OSI-027 (first compound 0.08 µM). The relative viability with VE-821 + OSI-027 (first compound 0.253 µM) was found to be 0.418; in the experiment with VE-821 + OSI-027 (first compound 0.8 µM), 0.391; in the experiment with VE-821 + OSI-027 (first compound 2.53 µM), 0.412; with VE-821 + OSI-027 (first compound 8 µM) it was 0.286; with VE-821 + Pemetrexed (first compound 0.08 µM), 0.997; with VE-821 + Pemetrexed (first compound 0.253 µM), 0.949. For the same cell line, the relative viability in the experiment with VE-821 + Pemetrexed (first compound 0.8 µM) stood at 0.947; with VE-821 + Pemetrexed (first compound 2.53 µM), 0.998; with VE-821 + Pemetrexed (first compound 8 µM), 0.474; in the experiment with VE-821 + Vorinostat (first compound 0.08 µM) it was 0.872; in the experiment with VE-821 + Vorinostat (first compound 0.253 µM) it was 0.795; with VE-821 + Vorinostat (first compound 0.8 µM), 0.83. For the same cell line, the relative viability with VE-821 + Vorinostat (first compound 2.53 µM) came to 0.806; with VE-821 + Vorinostat (first compound 8 µM), 0.51.

On to ABC-1, for which the relative viability is 0.602 in the experiment with Vismodegib + Pictilisib (first compound 0.08 µM); 0.841 with Vismodegib + Pictilisib (first compound 0.253 µM); 0.712 with Vismodegib + Pictilisib (first compound 0.8 µM); 0.757 in the experiment with Vismodegib + Pictilisib (first compound 2.53 µM); 0.772 with Vismodegib + Pictilisib (first compound 8 µM); 0.53 in the experiment with VE-821 + OSI-027 (first compound 0.08 µM). The relative viability with VE-821 + OSI-027 (first compound 0.253 µM) came to 0.485; with VE-821 + OSI-027 (first compound 0.8 µM), 0.485; in the experiment with VE-821 + OSI-027 (first compound 2.53 µM), 0.475; with VE-821 + OSI-027 (first compound 8 µM), 0.381; with VE-821 + Vorinostat (first compound 0.08 µM), 1.32; in the experiment with VE-821 + Vorinostat (first compound 0.253 µM), 1.06. The relative viability with VE-821 + Vorinostat (first compound 0.8 µM) is 1.11; with VE-821 + Vorinostat (first compound 2.53 µM), 1.26; with VE-821 + Vorinostat (first compound 8 µM), 1.01.

Regarding BEN, the relative viability with Vismodegib + Pictilisib (first compound 0.08 µM) is 0.614; with Vismodegib + Pictilisib (first compound 0.253 µM), 0.602; with Vismodegib + Pictilisib (first compound 0.8 µM), 0.537; with Vismodegib + Pictilisib (first compound 2.53 µM), 0.541; with Vismodegib + Pictilisib (first compound 8 µM), 0.583; in the experiment with VE-821 + OSI-027 (first compound 0.08 µM) it was 0.279. Moreover, the relative viability in the experiment with VE-821 + OSI-027 (first compound 0.253 µM) was 0.297; in the experiment with VE-821 + OSI-027 (first compound 0.8 µM), 0.332; with VE-821 + OSI-027 (first compound 2.53 µM) it was 0.277; in the experiment with VE-821 + OSI-027 (first compound 8 µM), 0.316; in the experiment with VE-821 + Pemetrexed (first compound 0.08 µM), 0.839; with VE-821 + Pemetrexed (first compound 0.253 µM), 0.678. Further, the relative viability is 0.719 with VE-821 + Pemetrexed (first compound 0.8 µM); 0.799 with VE-821 + Pemetrexed (first compound 2.53 µM); 0.581 with VE-821 + Pemetrexed (first compound 8 µM); 0.557 with VE-821 + Vorinostat (first compound 0.08 µM); 0.597 with VE-821 + Vorinostat (first compound 0.253 µM); 0.529 in the experiment with VE-821 + Vorinostat (first compound 0.8 µM). The relative viability with VE-821 + Vorinostat (first compound 2.53 µM) was determined as 0.587; with VE-821 + Vorinostat (first compound 8 µM), 0.594.
